# System: E. coli BL21(DE3)
# Experiment: Real-time detection of intracellular L-2-HG concentration in bacteria
# Assay type: cell-based, Escherichia coli
# Details: carbon starvation-treated E. coli BL21(DE3) expressing the biosensor, L-2-HG added, 37° C., 5 min interval
# Procedure: The above application was performed by introducing the L-2-HG biosensor-encoding plasmid pETDuet-LHGFR0N3C into an expression strain E. coli BL21 (DE3), shaking the culture and then adding IPTG overnight to induce LHGFR0N3C expression, carbon starvation treatment in inorganic salt medium without carbon source for 8 h to remove intracellular L-2-HG, mixing 90 μL of carbon starvation-treated bacterial solution with 10 μL of gradient concentration of L-2-HG solution, the fluorescence emission intensity of mTFP and Venus and its ratio were measured continuously at 5-minute intervals by a fluorescence microplate reader, and the fluorescence emission ratio increased in response to the addition of L-2-HG, and there was a positive correlation between the change level of fluorescence emission ratio and the concentration of L-2-HG, which can be used as an indicator to achieve real-time detection of dynamic changes in intracellular L-2-HG concentration of bacteria.
# The E. coli BL21(DE3)-pETDuet-LHGFR0N3C strain constructed in Example 3 was inoculated in 50 mL of LB medium containing ampicillin resistance and incubated at 37° C. with 180 rpm to an OD600 nm of approximately 0.6. Then, 1 mM IPTG was added, and LHGFR0N3C expression was induced at 16° C. with 160 rpm overnight. […] The fluorescence intensity was detected continuously by using an EnSight microplate reader (PerkinElmer, USA). […]
row,Molecule,detection of intracellular L-2-HG dynamics (fluorescence emission ratio)
1,LHGFR0N3C: L-2-HG biosensor: mTFP-LhgR-Venus fusion with C-terminal truncation of three amino acids of LhgR; SEQ ID NO. 3,able to detect dynamic changes in intracellular L-2-HG concentration of bacteria in real time

# System: HEK293FT cells
# Experiment: Detection of intracellular L-2-HG concentration in human cells
# Assay type: cell-based
# Details: HEK293FT cells expressing the biosensor, permeabilized with 10 μM digitonin, L-2-HG added
# Procedure: The above application was performed by optimizing and synthesizing the nucleotide sequences of LHGFR0N3C and LHGFR0N7C with mammalian codons, adding the kozark sequence, 5′-GCCACC-3′, before the start codon, and ligating it to the pcDNA3.1^(+) plasmid, then the obtained recombinant plasmids pcDNA3.1-LHGFR0N3C and pcDNA3.1-LHGFR0N7C were transfected into HEK293FT cells, respectively. Cells were trypsinized 48 h following transfection, and resuspended in 1× Hank's balanced salt solution supplemented with 20 mM HEPES. Digitonin at a concentration of 10 μM was used to induce cell permeabilization and deplete intracellular L-2-HG for in vivo response curves construction.
# The nucleotide sequences of LHGFR0N3C and LHGFR0N7C were optimized for mammalian codons and synthesized by General Biosystem Co., Ltd (Anhui). […] In a black flat-bottomed 96-well plate, 90 μL of the treated cell suspension was mixed with 10 μL of gradient concentration of L-2-HG and the fluorescence intensity was read in a SpectraMax i3 fluorescence plate reader (Molecular Devices, USA). […] The fluorescence intensity of HEK293FT cells not expressing the L-2-HG biosensor was subtracted at each emission wavelength and the dose-response curve in human cells was plotted as the ratio of the corrected fluorescence intensity at 528 nm to the fluorescence intensity at 485 nm.
row,Molecule,detection of intracellular L-2-HG (fluorescence emission ratio)
1,LHGFR0N7C: L-2-HG biosensor: mTFP-LhgR-Venus fusion with C-terminal truncation of seven amino acids of LhgR; SEQ ID NO. 4,able to detect intracellular L-2-HG concentration in human cells
2,LHGFR0N3C: L-2-HG biosensor: mTFP-LhgR-Venus fusion with C-terminal truncation of three amino acids of LhgR; SEQ ID NO. 3,able to detect intracellular L-2-HG concentration in human cells

# System: LhgR binding to the lhgO promoter (F1)
# Experiment: Electrophoretic mobility shift assays (EMSAs) to analyze the effectors of LhgR
# Parameters: species or system Pseudomonas putida W619
# Details: 50 mM compound, 60 nM purified LhgR, 10 nM F1 fragment, 30° C.
# Description: The above transcriptional regulator that specifically responds to L-2-hydroxyglutarate (L-2-HG) was obtained in the following way: • (1) analysis of the distribution of lhgO, the gene encoding a key enzyme for L-2-HG catabolism, in the genomes of different strains. A gene encoding a GntR family transcriptional regulator, lhgR, was found directly upstream of lhgO in the genome of Pseudomonas putida W619. lhgR gene was synthesized and cloned into pETDuet-1 vector, and the recombinant plasmid pETDuet-lhgR was introduced into an expression strain Escherichia coli BL21 (DE3), and then LhgR protein was obtained by induction of expression, isolation, and purification; • (2) electrophoretic mobility shift assays were performed to verify and determine the function of the above transcriptional regulator LhgR in Pseudomonas putida W619. Purified LhgR was incubated with different compounds (L-lysine, 5-aminovalerate, glutarate, D-2-HG, 2-ketoglutarate, and succinate), respectively, then the promoter fragment of lhgO was added. The effect on the binding ability of LhgR to the lhgO promoter fragment in the presence of different compounds was analyzed by electrophoretic separation, staining, and imaging.
# Using the recombinant plasmid pETDuet-F2-lhgR-F1-lhgO as a template, the promoter region of lhgO (F1) was amplified by PCR using the synthetic primers. The F1 fragment and purified LhgR protein were diluted to 100 nM and 2000 nM using EMSA binding buffer, respectively. 18 μL of EMSA binding buffer containing 60 nM purified LhgR protein and 50 mM of different compounds was incubated for 15 min at 30° C., then 2 μL of F1 fragment at a final concentration of 10 nM was added and incubated for another 30 min at 30° C. 10 μL of the reaction mixture was electrophoresed on a 6% native polyacrylamide gels at 4° C. and 170 volts for approximately 45 minutes, followed by staining with SYBR green I and photographing.
# The EMSA binding buffer formulation described in step (2) above was: 10 mM Tris-HCl, 50 mM KCl, 0.5 mM EDTA, 10% glycerol, and 1 mM dithiothreitol, adjusted to pH 7.4. The electrophoresis buffer formulation was: 89 mM Tris, 89 mM boric acid, 2 mM EDTA, adjusted to pH 8.3.
row,Molecule,effect on the binding of LhgR to the lhgO promoter fragment (EMSA)
1,NCCCC[C@H](N)C(=O)O [L-lysine],could not interfere with the binding of LhgR to DNA fragments
2,"O=C(O)CC[C@H](O)C(=O)O [L-2-HG, L-2-Hydroxyglutarate]",inhibited the binding of LhgR to the lhgO promoter fragment
3,O=C(O)CC[C@@H](O)C(=O)O [D-2-HG],could not interfere with the binding of LhgR to DNA fragments
4,NCCCCC(=O)O [5-aminovalerate],could not interfere with the binding of LhgR to DNA fragments
5,O=C(O)CCC(=O)O [succinate],could not interfere with the binding of LhgR to DNA fragments
6,O=C(O)CCC(=O)C(=O)O [2-ketoglutarate],could not interfere with the binding of LhgR to DNA fragments

# Source: US12429423B2, “L-2-hydroxyglutarate biosensor based on specific transcriptional regulator and application thereof” (SHANDONG UNIVERSITY, priority 2020, dated 2025)
